{"source": "paper PMC6572184", "about": "“New γ-Halo-δ-lactones and δ-Hydroxy-γ-lactones with Strong Cytotoxic Activity” (Molecules, 2019)", "data": [{"system": "Escherichia coli ATCC 8739", "experiment": "Bactericidal activity, CFU counting method", "format": "cell-based", "settings": "E. coli ATCC 8739; 18 h at 37 °C; Control 9.47, Control with DMSO 9.30", "procedure": "(§1) The bacterial cultures: Escherichia coli ATCC 8739 and Staphylococcus aureus ATCC 65389 were grown on Luria–Bertani Agar for 18 h at 37 ^∘ C. The strain suspension was prepared in 0.85% saline, with an optical density equivalent to a 0.5 McFarland standard. Next, the following mixtures were prepared: 180 μ L of sterile enriched broth (BTL), 10 μ L of the bacterial suspension and 10 μ L of the tested compound (range 0.1–50 μ g/mL) solubilized in DMSO. As a negative control, only DMSO was added. As a sterility control, 180 μ L of BTL and 20 μ L saline were used. The microtiter plate was incubated at 37 ^∘ C for 18 h. The colony forming unit (CFU) method was used to evaluate the microbial population. The experiment was repeated three times. Gentamicin was used as the reference antibiotic.", "values": [{"smiles": "CC1CC(=O)OC(c2ccc(F)cc2)C1Br", "note": "(mixture of isomers) [8c, Cis,trans-5-bromo-6-(4-fluorophenyl)-tetrahydro-4-methylpyran-2-one]", "Number of CFU/mL (× 10^7)": "8.87 × 10^7 CFU/mL"}, {"smiles": "CC1CC(=O)OC(c2ccccc2)C1Br", "note": "(mixture of isomers) [8b, Cis,trans-5-bromo-tetrahydro-4-methyl-6-phenylpyran-2-one]", "Number of CFU/mL (× 10^7)": "5.83 × 10^7 CFU/mL"}]}, {"system": "Staphylococcus aureus ATCC 65389", "experiment": "Bactericidal activity, CFU counting method", "format": "cell-based", "settings": "S. aureus ATCC 65389; 18 h at 37 °C; Control 21.36, Control with DMSO 20.85", "procedure": "as §1", "values": [{"smiles": "CC1CC(=O)OC(c2ccc(F)cc2)C1Br", "note": "(mixture of isomers) [8c, Cis,trans-5-bromo-6-(4-fluorophenyl)-tetrahydro-4-methylpyran-2-one]", "Number of CFU/mL (× 10^7)": "3.60 × 10^7 CFU/mL"}, {"smiles": "CC1CC(=O)OC(c2ccccc2)C1Br", "note": "(mixture of isomers) [8b, Cis,trans-5-bromo-tetrahydro-4-methyl-6-phenylpyran-2-one]", "Number of CFU/mL (× 10^7)": "9.04 × 10^7 CFU/mL"}]}, {"system": "Staphylococcus aureus ATCC 65389", "experiment": "Bactericidal activity, CFU counting method", "format": "cell-based", "settings": "S. aureus ATCC 65389; versus control", "procedure": "as §1", "values": [{"smiles": "CC1CC(=O)OC(c2ccc(F)cc2)C1Br", "note": "(mixture of isomers) [8c, Cis,trans-5-bromo-6-(4-fluorophenyl)-tetrahydro-4-methylpyran-2-one]", "less CFU/mL (reduction of the number of CFU/mL)": "78–83%"}]}, {"system": "AGS cell lines (human gastric adenocarcinoma)", "experiment": "MTT reduction cytotoxicity assay", "format": "cell-based", "settings": "not given", "procedure": "(§2) Cell cultures: The L929 mouse fibroblasts and human gastric adenocarcinoma cell line AGS were used for in vitro cytotoxicity assays. The cells were maintained under standard conditions (37 ^∘ C, 5% CO 2 ) in 25 cm^2 tissue culture flasks in RPMI-1640 medium supplemented with 10% fetal bovine serum (FBS) and antibiotics: 100 U/mL penicillin and 100 μ g/mL streptomycin. The cell suspension containing 10 ^8 cells in 1 mL, was obtained by treatment of confluent monolayers with 0.25% trypsin solution, washed and subcultured. Cell cultures were supplemented with medium to maintain them in log phase growth. The viability of the cells was assessed by exclusion of trypan blue dye.\n(§3) Measurements of cellular metabolic activity and global growth inhibition: L929 cells were seeded into 96-well plates (2 × 10 ^5 cells/well) for 24 h, at 37 ^∘ C, 5% CO2 . Tested compounds 5a–c, 6a–c, 7a–c, 8a–c, 9b,c, 10b,c, 12a and 13a were diluted serially in RPMI-1640 medium in concentrations of 50, 20, 10, 5, 0.5 and 0.1 μ g/mL, added to the cells (100 μ L/well), and incubated under standard conditions for 24 h. The potential harmful effect of lactones on L929 and AGS cells was assessed by the ability of the cells to reduce 3-(4,5-dimethylthiazol-2-yl)-2,5-diphenyltetrazolium bromide (MTT) to formazan. The solution of MTT (5 mg/mL in PBS), was added to each well and the plates were incubated for 4h at 37 ^∘ C. Formazan crystals were dissolved with acidic isopropanol (0.1 M HCl in absolute isopropanol) and the plates were read in a plate reader (Victor 2) at 570 nm. The percentage of MTT reduction was calculated by comparing the absorbance of treated cells to that of untreated control cells. Results are expressed as the mean percentage of viable cells ± standard deviation (SD) of four independent experiments. Statistical significance was accepted at a p-value < 0.05.", "units": {"IC50": "nM"}, "values": [{"smiles": "CC1CC(=O)OC(c2ccc(F)cc2)C1Br", "note": "(mixture of isomers) [8c, Cis,trans-5-bromo-6-(4-fluorophenyl)-tetrahydro-4-methylpyran-2-one]", "IC50": 2500}, {"smiles": "CC1CC(=O)OC(c2ccccc2)C1Br", "note": "(mixture of isomers) [8b, Cis,trans-5-bromo-tetrahydro-4-methyl-6-phenylpyran-2-one]", "IC50": 1900}]}, {"system": "AGS cell lines (human gastric adenocarcinoma)", "experiment": "MTT reduction cytotoxicity assay", "format": "cell-based", "settings": "0.1 μg/mL, 24 h", "procedure": "as §2, §3", "units": {"mean percentage of viable cells ± SD": "%"}, "values": [{"smiles": "CC1CC(=O)OC(c2ccc(F)cc2)C1Br", "note": "(mixture of isomers) [8c, Cis,trans-5-bromo-6-(4-fluorophenyl)-tetrahydro-4-methylpyran-2-one]", "mean percentage of viable cells ± SD": "69 ± 0.15"}, {"smiles": "CC1CC(=O)OC(c2ccccc2)C1Br", "note": "(mixture of isomers) [8b, Cis,trans-5-bromo-tetrahydro-4-methyl-6-phenylpyran-2-one]", "mean percentage of viable cells ± SD": "44 ± 0.15"}]}, {"system": "AGS cell lines (human gastric adenocarcinoma)", "experiment": "MTT reduction cytotoxicity assay", "format": "cell-based", "settings": "0.5 μg/mL, 24 h", "procedure": "as §2, §3", "units": {"mean percentage of viable cells ± SD": "%"}, "values": [{"smiles": "CC1CC(=O)OC(c2ccc(F)cc2)C1Br", "note": "(mixture of isomers) [8c, Cis,trans-5-bromo-6-(4-fluorophenyl)-tetrahydro-4-methylpyran-2-one]", "mean percentage of viable cells ± SD": "58 ± 0.10"}, {"smiles": "CC1CC(=O)OC(c2ccccc2)C1Br", "note": "(mixture of isomers) [8b, Cis,trans-5-bromo-tetrahydro-4-methyl-6-phenylpyran-2-one]", "mean percentage of viable cells ± SD": "35 ± 0.10"}]}, {"system": "AGS cell lines (human gastric adenocarcinoma)", "experiment": "MTT reduction cytotoxicity assay", "format": "cell-based", "settings": "5 μg/mL, 24 h", "procedure": "as §2, §3", "units": {"mean percentage of viable cells ± SD": "%"}, "values": [{"smiles": "CC1CC(=O)OC(c2ccc(F)cc2)C1Br", "note": "(mixture of isomers) [8c, Cis,trans-5-bromo-6-(4-fluorophenyl)-tetrahydro-4-methylpyran-2-one]", "mean percentage of viable cells ± SD": "43 ± 0.10"}, {"smiles": "CC1CC(=O)OC(c2ccccc2)C1Br", "note": "(mixture of isomers) [8b, Cis,trans-5-bromo-tetrahydro-4-methyl-6-phenylpyran-2-one]", "mean percentage of viable cells ± SD": "31 ± 0.02"}]}, {"system": "AGS cell lines (human gastric adenocarcinoma)", "experiment": "MTT reduction cytotoxicity assay", "format": "cell-based", "settings": "10 μg/mL, 24 h", "procedure": "as §2, §3", "units": {"mean percentage of viable cells ± SD": "%"}, "values": [{"smiles": "CC1CC(=O)OC(c2ccc(F)cc2)C1Br", "note": "(mixture of isomers) [8c, Cis,trans-5-bromo-6-(4-fluorophenyl)-tetrahydro-4-methylpyran-2-one]", "mean percentage of viable cells ± SD": "18 ± 0.07"}, {"smiles": "CC1CC(=O)OC(c2ccccc2)C1Br", "note": "(mixture of isomers) [8b, Cis,trans-5-bromo-tetrahydro-4-methyl-6-phenylpyran-2-one]", "mean percentage of viable cells ± SD": "28 ± 0.09"}]}, {"system": "AGS cell lines (human gastric adenocarcinoma)", "experiment": "MTT reduction cytotoxicity assay", "format": "cell-based", "settings": "20 μg/mL, 24 h", "procedure": "as §2, §3", "units": {"mean percentage of viable cells ± SD": "%"}, "values": [{"smiles": "CC1CC(=O)OC(c2ccc(F)cc2)C1Br", "note": "(mixture of isomers) [8c, Cis,trans-5-bromo-6-(4-fluorophenyl)-tetrahydro-4-methylpyran-2-one]", "mean percentage of viable cells ± SD": "11 ± 0.03"}, {"smiles": "CC1CC(=O)OC(c2ccccc2)C1Br", "note": "(mixture of isomers) [8b, Cis,trans-5-bromo-tetrahydro-4-methyl-6-phenylpyran-2-one]", "mean percentage of viable cells ± SD": "17 ± 0.10"}]}, {"system": "AGS cell lines (human gastric adenocarcinoma)", "experiment": "MTT reduction cytotoxicity assay", "format": "cell-based", "settings": "50 μg/mL, 24 h", "procedure": "as §2, §3", "units": {"mean percentage of viable cells ± SD": "%"}, "values": [{"smiles": "CC1CC(=O)OC(c2ccc(F)cc2)C1Br", "note": "(mixture of isomers) [8c, Cis,trans-5-bromo-6-(4-fluorophenyl)-tetrahydro-4-methylpyran-2-one]", "mean percentage of viable cells ± SD": "10 ± 0.09"}, {"smiles": "CC1CC(=O)OC(c2ccccc2)C1Br", "note": "(mixture of isomers) [8b, Cis,trans-5-bromo-tetrahydro-4-methyl-6-phenylpyran-2-one]", "mean percentage of viable cells ± SD": "11 ± 0.05"}]}, {"system": "L929 cell lines (mouse fibroblasts)", "experiment": "MTT reduction cytotoxicity assay", "format": "cell-based", "settings": "0.1 μg/mL, 24 h", "procedure": "as §2, §3", "units": {"mean percentage of viable cells ± SD": "%"}, "values": [{"smiles": "CC1CC(=O)OC(c2ccc(F)cc2)C1Br", "note": "(mixture of isomers) [8c, Cis,trans-5-bromo-6-(4-fluorophenyl)-tetrahydro-4-methylpyran-2-one]", "mean percentage of viable cells ± SD": "25 ± 0.03"}, {"smiles": "CC1CC(=O)OC(c2ccccc2)C1Br", "note": "(mixture of isomers) [8b, Cis,trans-5-bromo-tetrahydro-4-methyl-6-phenylpyran-2-one]", "mean percentage of viable cells ± SD": "24 ± 0.03"}]}, {"system": "L929 cell lines (mouse fibroblasts)", "experiment": "MTT reduction cytotoxicity assay", "format": "cell-based", "settings": "0.5 μg/mL, 24 h", "procedure": "as §2, §3", "units": {"mean percentage of viable cells ± SD": "%"}, "values": [{"smiles": "CC1CC(=O)OC(c2ccc(F)cc2)C1Br", "note": "(mixture of isomers) [8c, Cis,trans-5-bromo-6-(4-fluorophenyl)-tetrahydro-4-methylpyran-2-one]", "mean percentage of viable cells ± SD": "20 ± 0.08"}, {"smiles": "CC1CC(=O)OC(c2ccccc2)C1Br", "note": "(mixture of isomers) [8b, Cis,trans-5-bromo-tetrahydro-4-methyl-6-phenylpyran-2-one]", "mean percentage of viable cells ± SD": "17 ± 0.08"}]}, {"system": "L929 cell lines (mouse fibroblasts)", "experiment": "MTT reduction cytotoxicity assay", "format": "cell-based", "settings": "5 μg/mL, 24 h", "procedure": "as §2, §3", "units": {"mean percentage of viable cells ± SD": "%"}, "values": [{"smiles": "CC1CC(=O)OC(c2ccc(F)cc2)C1Br", "note": "(mixture of isomers) [8c, Cis,trans-5-bromo-6-(4-fluorophenyl)-tetrahydro-4-methylpyran-2-one]", "mean percentage of viable cells ± SD": "15 ± 0.03"}, {"smiles": "CC1CC(=O)OC(c2ccccc2)C1Br", "note": "(mixture of isomers) [8b, Cis,trans-5-bromo-tetrahydro-4-methyl-6-phenylpyran-2-one]", "mean percentage of viable cells ± SD": "15 ± 0.03"}]}, {"system": "L929 cell lines (mouse fibroblasts)", "experiment": "MTT reduction cytotoxicity assay", "format": "cell-based", "settings": "10 μg/mL, 24 h", "procedure": "as §2, §3", "units": {"mean percentage of viable cells ± SD": "%"}, "values": [{"smiles": "CC1CC(=O)OC(c2ccc(F)cc2)C1Br", "note": "(mixture of isomers) [8c, Cis,trans-5-bromo-6-(4-fluorophenyl)-tetrahydro-4-methylpyran-2-one]", "mean percentage of viable cells ± SD": "11 ± 0.03"}, {"smiles": "CC1CC(=O)OC(c2ccccc2)C1Br", "note": "(mixture of isomers) [8b, Cis,trans-5-bromo-tetrahydro-4-methyl-6-phenylpyran-2-one]", "mean percentage of viable cells ± SD": "8 ± 0.05"}]}, {"system": "L929 cell lines (mouse fibroblasts)", "experiment": "MTT reduction cytotoxicity assay", "format": "cell-based", "settings": "20 μg/mL, 24 h", "procedure": "as §2, §3", "units": {"mean percentage of viable cells ± SD": "%"}, "values": [{"smiles": "CC1CC(=O)OC(c2ccc(F)cc2)C1Br", "note": "(mixture of isomers) [8c, Cis,trans-5-bromo-6-(4-fluorophenyl)-tetrahydro-4-methylpyran-2-one]", "mean percentage of viable cells ± SD": "5 ± 0.02"}, {"smiles": "CC1CC(=O)OC(c2ccccc2)C1Br", "note": "(mixture of isomers) [8b, Cis,trans-5-bromo-tetrahydro-4-methyl-6-phenylpyran-2-one]", "mean percentage of viable cells ± SD": "4 ± 0.08"}]}, {"system": "L929 cell lines (mouse fibroblasts)", "experiment": "MTT reduction cytotoxicity assay", "format": "cell-based", "settings": "50 μg/mL, 24 h", "procedure": "as §2, §3", "units": {"mean percentage of viable cells ± SD": "%"}, "values": [{"smiles": "CC1CC(=O)OC(c2ccc(F)cc2)C1Br", "note": "(mixture of isomers) [8c, Cis,trans-5-bromo-6-(4-fluorophenyl)-tetrahydro-4-methylpyran-2-one]", "mean percentage of viable cells ± SD": "1 ± 0.05"}, {"smiles": "CC1CC(=O)OC(c2ccccc2)C1Br", "note": "(mixture of isomers) [8b, Cis,trans-5-bromo-tetrahydro-4-methyl-6-phenylpyran-2-one]", "mean percentage of viable cells ± SD": "1 ± 0.02"}]}]}
